We go through 25 molecules from ChEMBL document CHEMBL1131014, “Three-dimensional quantitative similarity-activity relationships (3D QSiAR) from SEAL similarity matrices” (J Med Chem, 1998).

SMILES strings stand for the structures.

For one assay, the target named is T1, Corticosteroid-binding globulin (Homo sapiens) (UniProt P08185).
T1 sequence (whole entry): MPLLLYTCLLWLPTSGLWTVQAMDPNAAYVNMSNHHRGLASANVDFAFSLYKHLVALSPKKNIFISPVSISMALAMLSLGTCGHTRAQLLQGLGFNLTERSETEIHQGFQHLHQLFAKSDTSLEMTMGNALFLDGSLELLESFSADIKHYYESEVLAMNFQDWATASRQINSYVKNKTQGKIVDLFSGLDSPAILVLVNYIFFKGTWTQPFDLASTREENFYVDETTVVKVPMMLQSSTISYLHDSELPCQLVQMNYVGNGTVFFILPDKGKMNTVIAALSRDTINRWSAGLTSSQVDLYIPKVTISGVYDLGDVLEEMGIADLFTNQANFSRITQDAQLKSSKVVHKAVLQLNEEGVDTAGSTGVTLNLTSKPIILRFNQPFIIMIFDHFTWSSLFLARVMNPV
Description: Binding affinity to corticosteroid binding globulin
On to `C[C@]12CCC(=O)C=C1CCC1[C@@H]2[C@@H](O)C[C@@]2(C)[C@H]1CC[C@]2(O)C(=O)CO` (single isomer, unassigned), for which the Log K turned out to be 7.88.

For the molecule `C[C@]12CC[C@H]3[C@@H](CCC4=CC(=O)CC[C@@]43C)[C@@H]1CC[C@@H]2C(=O)CO`, the Log K was 7.65.

`C[C@]12CCC(=O)C=C1CC[C@@H]1[C@@H]2CC[C@@]2(C)[C@H]1CC[C@]2(O)C(=O)CO` came in with a Log K of 7.88.

In turn, `CC(=O)[C@H]1CC[C@H]2[C@@H]3CCC4=CC(=O)CC[C@]4(C)[C@H]3C(=O)C[C@]12C` gave a Log K of 6.78.

`C[C@]12C[C@H](O)[C@H]3[C@@H](CCC4=CC(=O)CC[C@@]43C)[C@@H]1CC[C@@H]2C(=O)CO` had a Log K of 7.88.

`C[C@]12CC[C@H]3[C@@H](CCC4=CC(=O)CC[C@@]43C)[C@@H]1CC[C@@H]2O`: the Log K came out at 6.72.

As to `C[C@]12CC[C@H](O)CC1=CC[C@@H]1[C@@H]2CC[C@]2(C)C(=O)CC[C@@H]12`, the Log K amounted to 5.

With `CC(=O)[C@@]1(O)[C@H](O)C[C@H]2[C@@H]3CCC4=CC(=O)CC[C@]4(C)[C@H]3CC[C@@]21C`, the Log K is 6.25.

As for `C[C@]12CCC(=O)C=C1CC[C@@H]1[C@@H]2CC[C@]2(C)C(=O)CC[C@@H]12`, the Log K was determined as 5.76.

Molecule `C[C@]12CC[C@H](O)C[C@@H]1CC[C@@H]1[C@@H]2CC[C@]2(C)[C@@H](O)CC[C@@H]12` came in with a Log K of 5.

As for `C[C@]12C=CC(=O)C=C1CCC1[C@@H]2[C@@H](O)C[C@@]2(C)[C@H]1CC[C@]2(O)C(=O)CO` (single isomer, unassigned), the Log K was found to be 7.51.

In the case of `C[C@]12CC[C@@H]3c4ccc(O)cc4CC[C@H]3[C@@H]1C[C@@H](O)[C@@H]2O`, the Log K was found to be 5.

Consider `CC(=O)[C@H]1CC[C@H]2[C@@H]3CCC4=CC(=O)CC[C@]4(C)[C@H]3CC[C@]12C`, for which the Log K turned out to be 7.38.

Molecule `CC(=O)[C@H]1CC[C@H]2[C@@H]3CC=C4C[C@@H](O)CC[C@]4(C)[C@H]3CC[C@]12C` registered a Log K of 5.25.

Regarding `C[C@@H]1C[C@@]2(C)C(=CC1=O)CC[C@H]1[C@@H]3CC[C@](O)(C(=O)CO)[C@@]3(C)C[C@H](O)[C@@]12F`, the Log K turned out to be 5.8.

`CC(=O)[C@H]1CC[C@H]2[C@@H]3CCC4=CC(=O)CCC4[C@H]3CC[C@]12C` (stereo not given in full): the Log K turned out to be 6.82.

With `C[C@]12C[C@@H](O)[C@H]3[C@@H](CCC4=CC(=O)CC[C@@]43C)[C@@H]1CC[C@@H]2C(=O)CO`, the Log K is 7.2.

For the molecule `C[C@]12CCC(=O)C=C1CC[C@@H]1[C@@H]2[C@@H](O)C[C@]2(C=O)[C@@H](C(=O)CO)CC[C@@H]12`, the Log K is 6.28.

In turn, `CC(=O)[C@@]1(O)CC[C@H]2[C@@H]3CC[C@@H]4C[C@H](O)CC[C@]4(C)[C@H]3CC[C@@]21C` showed a Log K of 5.

With `CC(=O)OCC(=O)[C@@]1(O)CC[C@H]2C3CCC4=CC(=O)CC[C@]4(C)[C@H]3[C@@H](O)C[C@@]21C` (single isomer, unassigned), the Log K came to 7.55.

`C[C@]12CCC(=O)C=C1CCC1[C@@H]2C(=O)C[C@@]2(C)[C@H]1CC[C@]2(O)C(=O)CO` (single isomer, unassigned) showed a Log K of 6.89.

Molecule `CC(=O)[C@@]1(O)CC[C@H]2[C@@H]3CCC4=CC(=O)CC[C@]4(C)[C@H]3CC[C@@]21C` yielded a Log K of 7.74.

Consider `CC(=O)[C@H]1[C@H](C)C[C@H]2[C@@H]3CCC4=CC(=O)CC[C@]4(C)[C@H]3CC[C@@]21C`, for which the Log K turned out to be 7.12.

`C[C@]12CC[C@H]3[C@@H](CCC4=CC(=O)CC[C@@H]43)[C@@H]1CC[C@@H]2O` yielded a Log K of 6.14.

The next assay concerns the target T2, Corticosteroid-binding globulin (Sus scrofa) (UniProt Q9GK37).
T2 sequence (whole entry): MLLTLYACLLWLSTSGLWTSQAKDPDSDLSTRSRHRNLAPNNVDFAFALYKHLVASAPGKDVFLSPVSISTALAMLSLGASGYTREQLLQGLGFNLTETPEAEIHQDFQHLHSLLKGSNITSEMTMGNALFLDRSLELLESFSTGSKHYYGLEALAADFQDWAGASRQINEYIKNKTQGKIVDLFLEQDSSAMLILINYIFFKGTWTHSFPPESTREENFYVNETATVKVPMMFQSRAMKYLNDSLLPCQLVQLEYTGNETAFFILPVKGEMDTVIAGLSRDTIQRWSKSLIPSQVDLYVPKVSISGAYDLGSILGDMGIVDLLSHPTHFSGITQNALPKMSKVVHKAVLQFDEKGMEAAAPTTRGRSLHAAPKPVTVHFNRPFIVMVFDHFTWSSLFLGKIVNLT
Description: Compound was tested for Corticosteroid binding globulin affinity
`C[C@]12CC[C@@H]3c4ccc(O)cc4CC[C@H]3[C@@H]1CC[C@@H]2O` returned a Log K of 5.
